± gives the standard deviation of the averaged measurements.
What was measured:
[1] = compound: COc1cc2c(cc1O)CC[C@@H]1[C@@H]2CC[C@]2(C)[C@@H](O)CC[C@@H]12 [2-METHOXYESTRADIOL]; assay: surviving fraction relative to DMSO-only wells; higher = less growth inhibition; details: exposure time: 5 days
Summary of the method: (§1)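 Tumour cell lines were grown to log phase and seeded at 250–500 cells per well in 384-well plates. They were exposed continuously to inhibitors at 0.5, 1, 5, 10, 50, 100, 500 and 1000 nM for five days, beginning 24 hours after seeding. Surviving fraction is CellTiter-Glo luminescence normalised to the median of DMSO-only wells.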

[2] = compound: Oc1ccc(/C=C/c2cc(O)cc(O)c2)cc1 [RESVERATROL]; assay: as above; details: exposure time: 5 days
Summary of the method: as §1

Test System	surviving fraction ([1]; 0.5 nM)	surviving fraction ([1]; 1 nM)	surviving fraction ([1]; 5 nM)	surviving fraction ([1]; 10 nM)	surviving fraction ([1]; 50 nM)	surviving fraction ([1]; 100 nM)	surviving fraction ([1]; 500 nM)	surviving fraction ([1]; 1000 nM)	surviving fraction ([2]; 0.5 nM)	surviving fraction ([2]; 1 nM)	surviving fraction ([2]; 5 nM)	surviving fraction ([2]; 10 nM)	surviving fraction ([2]; 50 nM)	surviving fraction ([2]; 100 nM)	surviving fraction ([2]; 500 nM)	surviving fraction ([2]; 1000 nM)
SCC36 HEADNECK	1.09 ± 0.053	1.03 ± 0.052	1.09 ± 0.083	1.04 ± 0.091	1.22 ± 0.065	1.14 ± 0.016	0.94 ± 0.096	0.251 ± 0.029	1.13 ± 0.082	1.14 ± 0.11	1.22 ± 0.044	1.19 ± 0.045	1.25 ± 0.07	1.25 ± 0.03	1.05 ± 0.099	1.16 ± 0.16
SCC47 HEADNECK	0.816 ± 0.11	0.912 ± 0.15	0.977 ± 0.055	1.1 ± 0.16	1.09 ± 0.11	1.12 ± 0.15	0.838 ± 0.046	0.872 ± 0.12	1.09 ± 0.13	1.11 ± 0.096	1.09 ± 0.066	1.21 ± 0.038	1.21 ± 0.072	1.17 ± 0.051	1.09 ± 0.023	1.2 ± 0.057
SCC90 HEADNECK	0.927 ± 0.058	0.721 ± 0.076	1.02 ± 0.1	0.923 ± 0.12	1 ± 0.1	0.875 ± 0.099	0.185 ± 0.017	0.102 ± 0.013	1.01 ± 0.012	1.045 ± 0.0079	1.12 ± 0.15	1.08 ± 0.021	1.03 ± 0.061	1.05 ± 0.064	1.05 ± 0.019	0.956 ± 0.076
SG27 HEADNECK	1.14 ± 0.19	1.2 ± 0.083	1.04 ± 0.12	1.05 ± 0.081	1.05 ± 0.085	1.16 ± 0.2	1.09 ± 0.062	1.03 ± 0.079	1.15 ± 0.14	1.02 ± 0.069	1.03 ± 0.067	1.06 ± 0.1	1.04 ± 0.083	1.17 ± 0.059	1.15 ± 0.085	1.08 ± 0.12
SG28 HEADNECK	1.07 ± 0.037	1.18 ± 0.096	0.94 ± 0.0042	1.11 ± 0.016	1.11 ± 0.13	1.06 ± 0.048	1.06 ± 0.066	1.02 ± 0.064	1.03 ± 0.12	1.07 ± 0.1	1.15 ± 0.11	1 ± 0.057	1.01 ± 0.005	1 ± 0.051	1.06 ± 0.053	1.03 ± 0.2

— the supplement of paper PMC6045584
